The experiment concerns T1, TanHcw.
T1 construct: C-terminal His-tag, pET23a, E. coli BL21(DE3) pLysS; 39 kDa on gel
As to the kind of experiment: gallic acid release, rhodanine chromogen at […] nm; Lineweaver-Burk. In kind it is biochemical, Herbaspirillum camelliae. To be noted: 0.1-2.0 mM substrate.

We go through three compounds from article PMC8507159, “Degradation of epigallocatechin and epicatechin gallates by a novel tannase TanHcw from Herbaspirillum camelliae” (Microbial Cell Factories, 2021).

As a reminder, the Km is the concentration of substrate that gives half-maximal velocity.

For `O=C(O[C@@H]1Cc2c(O)cc(O)cc2O[C@@H]1c1ccc(O)c(O)c1)c1cc(O)c(O)c(O)c1` [ECG, (–)–epicatechin-3-gallate], the Michaelis constant (Km) (pH 7.0, 40 °C) was found to be 330 ± 10 µM.
On to `O=C(O[C@@H]1Cc2c(O)cc(O)cc2O[C@@H]1c1cc(O)c(O)c(O)c1)c1cc(O)c(O)c(O)c1` [EGCG, (–)–epigallocatechin-3-gallate], for which, under “pH 7.0, 40 °C”, the Michaelis-Menten constant (Km) was found to be 300 ± 10 µM.
Turning to `COC(=O)c1cc(O)c(O)c(O)c1` [MG, Methyl gallate], under “pH 6.0, 30 °C”, the Michaelis-Menten constant (Km) was 820 ± 20 µM.
